Experimental data taken from PubChem BioAssay AID1259407 (Chemical Carcinogenesis Research Information System (CCRIS), 2018).
Active and inactive are the calls of the source. No rule for the calls is given here.

Test system: CCRIS mutagenicity, Ames/micronucleus/aberration tests
Test: CCRIS mutagenicity studies
[1] = Test System: AMES SALMONELLA TYPHIMURIUM, Strain/Indicator: TA98, Metabolic Activation: NONE, Method: STANDARD PLATE
[2] = Test System: AMES SALMONELLA TYPHIMURIUM, Strain/Indicator: TA98, Metabolic Activation: RAT, LIVER, S-9, AROCLOR 1254, Method: STANDARD PLATE
[3] = Test System: AMES SALMONELLA TYPHIMURIUM, Strain/Indicator: TA100, Metabolic Activation: NONE, Method: STANDARD PLATE
[4] = Test System: AMES SALMONELLA TYPHIMURIUM, Strain/Indicator: TA100, Metabolic Activation: RAT, LIVER, S-9, AROCLOR 1254, Method: STANDARD PLATE
[5] = Test System: AMES SALMONELLA TYPHIMURIUM, Strain/Indicator: TA1535, Metabolic Activation: NONE, Method: STANDARD PLATE
[6] = Test System: AMES SALMONELLA TYPHIMURIUM, Strain/Indicator: TA1535, Metabolic Activation: RAT, LIVER, S-9, AROCLOR 1254, Method: STANDARD PLATE
[7] = Test System: AMES SALMONELLA TYPHIMURIUM, Strain/Indicator: TA1537, Metabolic Activation: NONE, Method: STANDARD PLATE
[8] = Test System: AMES SALMONELLA TYPHIMURIUM, Strain/Indicator: TA1537, Metabolic Activation: RAT, LIVER, S-9, AROCLOR 1254, Method: STANDARD PLATE

CCCCCCCCCCCCCC(=O)N(OC(C)=O)c1ccc2c(c1)Cc1ccccc1-2
mutagenic call (Test System: UDS HUMAN FIBROBLASTS, Strain/Indicator: THY INCORP (NON-S-PHASE), Metabolic Activation: NONE, Method: AUTORADIOGRAPHY): active; positive

FCC1CO1 (stereo not drawn)
mutagenic call (Test System: AMES SALMONELLA TYPHIMURIUM, Strain/Indicator: TA98, Metabolic Activation: HAMSTER, LIVER, S-9, AROCLOR 1254 (30%), Method: PREINCUBATION): inactive; negative | mutagenic call (Test System: AMES SALMONELLA TYPHIMURIUM, Strain/Indicator: TA98, Metabolic Activation: NONE, Method: PREINCUBATION): inactive; negative | mutagenic call (Test System: AMES SALMONELLA TYPHIMURIUM, Strain/Indicator: TA98, Metabolic Activation: RAT, LIVER, S-9, AROCLOR 1254 (30%), Method: PREINCUBATION): inactive; negative | mutagenic call (Test System: AMES SALMONELLA TYPHIMURIUM, Strain/Indicator: TA100, Metabolic Activation: HAMSTER, LIVER, S-9, AROCLOR 1254 (30%), Method: PREINCUBATION): active; positive | mutagenic call (Test System: AMES SALMONELLA TYPHIMURIUM, Strain/Indicator: TA100, Metabolic Activation: NONE, Method: PREINCUBATION): active; positive | mutagenic call (Test System: AMES SALMONELLA TYPHIMURIUM, Strain/Indicator: TA100, Metabolic Activation: RAT, LIVER, S-9, AROCLOR 1254 (30%), Method: PREINCUBATION): active; positive

O=C1CN=C(c2ccccc2)c2cc([N+](=O)[O-])ccc2N1
mutagenic call [1]: inactive; negative | mutagenic call [2]: inactive; negative | mutagenic call [3]: inactive; negative | mutagenic call [4]: inactive; negative | mutagenic call (Test System: AMES SALMONELLA TYPHIMURIUM, Strain/Indicator: TA102, Metabolic Activation: NONE, Method: STANDARD PLATE): inactive; negative | mutagenic call (Test System: AMES SALMONELLA TYPHIMURIUM, Strain/Indicator: TA102, Metabolic Activation: RAT, LIVER, S-9, AROCLOR 1254, Method: STANDARD PLATE): inactive; negative | mutagenic call [5]: inactive; negative | mutagenic call [6]: inactive; negative | mutagenic call [7]: inactive; negative | mutagenic call [8]: inactive; negative | mutagenic call (Test System: E. COLI, Strain/Indicator: WP2 UVRA, Metabolic Activation: NONE, Method: STANDARD PLATE): inactive; negative | mutagenic call (Test System: E. COLI, Strain/Indicator: WP2 UVRA, Metabolic Activation: RAT, LIVER, S-9, AROCLOR 1254, Method: STANDARD PLATE): inactive; negative

O=Nc1ccc2ccc3cc4ccccc4c4ccc1c2c34
mutagenic call (Test System: AMES SALMONELLA TYPHIMURIUM, Strain/Indicator: TA98 (1,8-DNP6), Metabolic Activation: NONE, Method: STANDARD PLATE): active; positive | mutagenic call (Test System: AMES SALMONELLA TYPHIMURIUM, Strain/Indicator: TA98 (NR), Metabolic Activation: NONE, Method: STANDARD PLATE): active; positive | mutagenic call [1]: active; positive | mutagenic call (Test System: CHINESE HAMSTER OVARY, Strain/Indicator: CHO-K1-BH4 (HGPRT), Metabolic Activation: NONE): active; positive

CC(=O)Nc1ccc(Cc2ccc(N)cc2)cc1
mutagenic call [1]: inactive; negative | mutagenic call (Test System: AMES SALMONELLA TYPHIMURIUM, Strain/Indicator: TA98, Metabolic Activation: RAT, LIVER, S-9, PCB, Method: STANDARD PLATE): inactive; negative | mutagenic call [3]: inactive; negative | mutagenic call (Test System: AMES SALMONELLA TYPHIMURIUM, Strain/Indicator: TA100, Metabolic Activation: RAT, LIVER, S-9, PCB, Method: STANDARD PLATE): inactive; negative

COc1ccc(S(=O)(=O)n2ncc(Cl)c(Cl)c2=O)cc1
mutagenic call [1]: inactive; negative | mutagenic call [2]: inactive; negative | mutagenic call [3]: inactive; negative | mutagenic call [4]: inactive; negative | mutagenic call [5]: inactive; negative | mutagenic call [6]: inactive; negative | mutagenic call [7]: inactive; negative | mutagenic call [8]: inactive; negative

[O-][n+]1c2ccc3ccccc3c2cc2c3ccccc3ccc21
mutagenic call (Test System: AMES SALMONELLA TYPHIMURIUM, Strain/Indicator: TA100, Metabolic Activation: GUINEA PIG, LIVER, S-9, 3-METHYLCHOLANTHRENE, Method: STANDARD PLATE): inactive; negative | mutagenic call (Test System: CHINESE HAMSTER V-79, Strain/Indicator: V-79/6-THIOGUANINE, Metabolic Activation: GUINEA PIG, LIVER, S-9, 3-METHYLCHOLANTHRENE): active; positive

CSC(=O)c1cccc2nnsc12
mutagenic call (End Point: In vivo micronucleus, Test System: Femoral bone marrow polychromatic erythrocytes, Species: Mouse, Strain/Sex: Female, Route: Gavage): inactive; negative; strain is not given by dpr reviewer | mutagenic call (End Point: In vivo micronucleus, Test System: Femoral bone marrow polychromatic erythrocytes, Species: Mouse, Strain/Sex: Male, Route: Gavage): inactive; negative; strain is not given by dpr reviewer

O=C1c2ccccc2-c2cccc3cccc1c23
mutagenic call [1]: inactive; negative | mutagenic call [2]: active; positive | mutagenic call [4]: active; positive

CCCCCCCCCCCCCCCC(=O)OC/C=C(C)/C=C/C=C(C)/C=C/C1=C(C)CCCC1(C)C
mutagenic call (End Point: IN VIVO CHROMOSOMAL ABERRATIONS, Test System: BONE MARROW CELLS, Species: RAT, Strain/Sex: WISTAR/MALE, FEMALE, Route: ORAL (GAVAGE)): active; positive (structural changes; abnormal metaphase) | mutagenic call (End Point: IN VIVO CHROMOSOMAL ABERRATIONS, Test System: BONE MARROW, Species: RAT, Strain/Sex: WISTAR/MALE, FEMALE, Route: GAVAGE): active; positive (structural changes) | mutagenic call (End Point: IN VIVO MICRONUCLEUS, Test System: BONE MARROW POLYCHROMATIC ERYTHROCYTES, Species: MOUSE, Strain/Sex: DDY/MALE, Route: IP): inactive; negative | mutagenic call [1]: inactive; negative | mutagenic call [2]: inactive; negative | mutagenic call [3]: inactive; negative | mutagenic call [4]: inactive; negative | mutagenic call [5]: inactive; negative | mutagenic call [6]: inactive; negative | mutagenic call [7]: inactive; negative | mutagenic call [8]: inactive; negative | mutagenic call (Test System: AMES SALMONELLA TYPHIMURIUM, Strain/Indicator: TA1538, Metabolic Activation: NONE, Method: STANDARD PLATE): inactive; negative | mutagenic call (Test System: AMES SALMONELLA TYPHIMURIUM, Strain/Indicator: TA1538, Metabolic Activation: RAT, LIVER, S-9, AROCLOR 1254, Method: STANDARD PLATE): inactive; negative | mutagenic call (Test System: E. COLI, Strain/Indicator: WP2, Metabolic Activation: NONE, Method: STANDARD PLATE): inactive; negative | mutagenic call (Test System: E. COLI, Strain/Indicator: WP2, Metabolic Activation: RAT, LIVER, S-9, AROCLOR 1254, Method: STANDARD PLATE): inactive; negative

O=C(c1ccccc1)C1OC1c1ccc(Oc2ccccc2)cc1 (stereo not drawn)
mutagenic call [1]: inactive; negative | mutagenic call [2]: inactive; negative | mutagenic call [3]: inactive; negative | mutagenic call [4]: inactive; negative

CCCCN(N=O)/C(C=O)=N/O
mutagenic call [5]: active; positive | mutagenic call (Test System: E. COLI, Strain/Indicator: WP2 (HCR-), Metabolic Activation: NONE, Method: STANDARD PLATE): active; positive
